Data reported in patent US6384075B1, “Bicyclic amino derivatives and PGD2, antagonist containing them” (Shionogi & Co., Ltd., priority 1995, dated 2002).

Assays:
PGD2 receptor = target: T1, PGD2 receptor (Homo sapiens, UniProt Q13258); test: Binding to PGD2 receptor ([3H]PGD2, human platelet membrane fraction); settings: 5 nM [3H]PGD2, 4° C., 90 min, read-out: Activity (binding-inhibitory activity, concentration required for 50% inhibition, IC50)
T1 construct: Preparation of Human Platelet Membrane Fraction; from tissue; host or cells: human platelets (membrane fraction) from blood of healthy volunteers
T1 sequence (Q13258 1-359): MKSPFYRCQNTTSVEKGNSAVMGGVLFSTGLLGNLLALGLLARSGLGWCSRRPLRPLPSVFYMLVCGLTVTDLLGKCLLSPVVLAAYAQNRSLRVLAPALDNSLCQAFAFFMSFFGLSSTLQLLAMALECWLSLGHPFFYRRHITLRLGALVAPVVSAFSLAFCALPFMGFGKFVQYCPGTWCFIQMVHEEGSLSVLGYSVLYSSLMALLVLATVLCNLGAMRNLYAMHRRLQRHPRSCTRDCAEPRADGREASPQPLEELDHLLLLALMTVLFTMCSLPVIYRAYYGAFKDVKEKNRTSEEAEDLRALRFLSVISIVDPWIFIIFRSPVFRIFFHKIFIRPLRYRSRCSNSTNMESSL
Procedure: (1) Preparation of Human Platelet Membrane Fraction
Blood sample was obtained using a plastic syringe containing 3.8% sodium citrate from a venous of healthy volunteers (adult male and female), put into a plastic test tube and mixed gently by inversion. The sample was then centrifuged at 1800 rpm, 10 min at room temperature, and supernatant containing PRP (platelet rich plasma) was collected. The PRP was re-centrifuged at 2300 rpm, 22 min at room temperature to obtain platelets. The platelets were homogenized using a homogenizer (Ultra-Turrax) followed by centrifugation 3 times at 20,000 rpm, 10 min at 4° C. to obtain platelet membrane fraction. After protein determination, the membrane fraction was adjusted to 2 mg/ml and preserved in a refrigerator at […] until use.
(2) Binding to PGD2 Receptor
To a binding-reaction solution (50 mM Tris/HCl, pH 7.4, 5 mM MgCl2) (0.2 ml) were added human platelet membrane fraction (0.1 mg) and 5 nM [3H]PGD2 (115 Ci/mmol), and reacted at 4° C. for 90 min. After the reaction completed, the reaction mixture was filtered through the glass fiber filter paper, washed several times with cooled saline, and measured radioactivity retained on the filter paper. The specific binding was calculated by subtracting the non-specific binding (the binding in the presence of 10 μM PGD2) from the total binding. […]

[1] = system: nasal cavity resistance (nasal occlusion model); test: Nasal occlusion model: nasal cavity resistance after antigen (OVA) exposure in sensitized guinea pig; type: in vivo; settings: 1 mg/kg (i.v.), 10 min before antigen exposure
Procedure: Experiment Using Nasal Occlusion Model
The method used for measuring the nasal cavity resistance and evaluating the anti-nasal occlusion using a guinea pig are described below.
A 1% ovalbumin (OVA) solution was treated with ultrasonic nebulizer to obtain an aerosol. Hartley male guinea pig was sensitized by inhaling twice the aerosol for 10 min at one-week interval. Seven-day after the sensitization, the guinea pig was exposed to an antigen to initiate the reaction. Then the trachea was incised under the anesthesia with pentobarbital (30 mg/kg, i.p.) and cannulas were inserted into the trachea at the pulmonary and nasal cavity sides. The canal inserted at the pulmonary side was connected with an artificial respirator that provides 4 ml air 60 times/min. After arresting the spontaneous respiration of a guinea pig with Garamin (2 mg/kg, i.v.), air was supplied to the snout side with an artificial respirator at the frequency of 70 times/min, and the flow rate of 4 ml air/time, and the atmospheric pressure required for the aeration was measured by the use of a transducer fitted at the branch. The measurement was used as a parameter of the nasal cavity resistance. The exposure of an antigen was carried out by generating aerosol of 3% OVA solution for 3 min between the respirator and nasal cavity cannula. The test drug was injected intravenously 10 min before the antigen exposure. […]

O=C(O)CCC/C=C\C[C@@H]1[C@H]2CC[C@H](C2)[C@H]1NS(=O)(=O)c1ccc2oc3ccccc3c2c1 [1a-2, (Z)-7-[(1S,2R,3R,4R)-3-(2-dibezofuryl)sulfonylaminobicyclo[2.2.1]hept-2-yl]-5-heptenoic acid]
IC50 (PGD2 receptor): 0.13 µM | Inhibition Rate (%) of nasal cavity resistance (AUC 0-30 min vs vehicle) [1]: 82%
